Peptide text beside a SMILES is read from it. * marks the point of attachment. Cbz = O=C(OCc1ccccc1)*
How the values were obtained:
[1] = system: resistin mRNA in primary human macrophages; experiment: Resistin mRNA expression in primary human macrophages (real time PCR); type: cell-based; conditions: for effect on induction of resistin by LPS: pretreated 2 h, then LPS (1 ng/ml) 24 h
Procedure: (§1) Peripheral blood mononuclear cells were isolated from whole blood of healthy donors following apheresis and elutriation. […] Cells were plated in 24 well plates at a density of 10^6 cells per well, allowed to adhere for 4 hours, then washed with Dulbecco's Modified Eagles Medium (DMEM) and further cultured in 10% FBS in DMEM supplemented with 5 ng/ml GM-CSF (Sigma) to promote macrophage differentiation. All experiments were performed after overnight equilibration with macrophage serum free medium (Gibco/Invitrogen) supplemented with 5 ng/ml GM-CSF. […] Adenovirus expressing activated IKK in pAD-easy™ vector with GFP and control vector were a generous gift from Steven Shoelson.
RNA was isolated using RNeasy® Mini Kit (Qiagen), then subjected to DNAse digestion followed by reverse transcription (Invitrogen). mRNA transcripts were quantified by the dual-labeled fluorogenic probe method for real time PCR, using a Prism® 7900 thermal cycler and sequence detector (Perkin Elmer/ABI). Real time PCR was performed by using Taqman® Universal Polymerase Master Mix (Applied Biosystems). The primers and probes used in the real-time PCR were the following: […]
The cycle number at which the transcripts of the gene of interest was detectable (CT) was normalized to the cycle number of 36B4 detection, referred to as δ CT. The fold change of the gene of interest expression relative to the vehicle treated group was expressed as 2^− δδ^CT, in which δδ CT equals the δCT of the compound treated group minus δCT of the chosen control group, which was normalized to 1.

[2] = system: sTNFR2 secretion by human macrophages; experiment: sTNFR2 secretion into medium by primary human macrophages; type: cell-based; conditions: LPS 1 μg/ml, time course
Procedure: (§2) Peripheral blood mononuclear cells were isolated from whole blood of healthy donors following apheresis and elutriation. Greater than 90% of these monocytes expressed CD14 and HLA-DR. Cells were plated in 24 well plates at a density of 10^6 cells per well, allowed to adhere for 4 hours, then washed with Dulbecco's Modified Eagles Medium (DMEM) and further cultured in 10% FBS in DMEM supplemented with 5 ng/ml GM-CSF (Sigma) to promote macrophage differentiation. All experiments were performed after overnight equilibration with macrophage serum free medium (Gibco/Invitrogen) supplemented with 5 ng/ml GM-CSF. […]
Resistin concentrations, in cell media and human plasma, were assessed with a commercially available ELISA (Linco) and normalized to cell protein. […] Direct comparison of standard curves generated by the Linco kit with another commercially available resistin ELISA (Biovendor) yielded high correlation (rho=0.99, p<0.001), except that the Biovendor results were approximately 30% lower than those determined with the Linco assay. […] Resistin levels in 40 plasma samples were measured using both Linco and Biovendor ELISA kits, with moderate correlation (rho=0.66). Levels of soluble TNFα Receptor-2 were measured using a commercially available immunoassay (R&D Systems). […]

[3] = system: mouse resistin in mouse peritoneal macrophages; experiment: Resistin expression in activated mouse peritoneal macrophages; type: cell-based; conditions: macrophages harvested after thioglycolate treatment; data not shown
[4] = system: TNFα mRNA in primary human macrophages; experiment: TNFα mRNA expression in primary human macrophages (real time PCR); type: cell-based; conditions: LPS 1 μg/ml
Procedure: as §2, with “GM-CSF. Cells were treated as indicated with LPS (Sigma), aspirin (Sigma), SN50 and control peptide (Biomol), MG132, PD98059, SB20358 (Calbiochem), and TNFα (R&D Systems).” for “GM-CSF.”
RNA was isolated using RNeasy® Mini Kit (Qiagen), then subjected to DNAse digestion followed by reverse transcription (Invitrogen). mRNA transcripts were quantified by the dual-labeled fluorogenic probe method for real time PCR, using a Prism® 7900 thermal cycler and sequence detector (Perkin Elmer/ABI). […]
Primer and probe for TNFα was obtained from ABI. […] The fold change of the gene of interest expression relative to the vehicle treated group was expressed as 2^− δδ^CT, in which δδ CT equals the δCT of the compound treated group minus δCT of the chosen control group, which was normalized to 1.

plasma resistin = experiment: Human endotoxemia study, plasma resistin (ELISA); type: in vivo; conditions: for increase of plasma resistin levels: healthy volunteers
Procedure: In another experiment, short term variation in plasma levels was examined by repeated sampling in young healthy control subjects of an additional clinical research study (Reilly et al, 2004c, and Lehrke, 2004, both cited above). Baseline variability in plasma resistin was assessed over a 24 hour period, in healthy young volunteers (n=6; three male and three females; age 24-34; BMI 24.3±1.07) without any past medical history and on no medications. These subjects were recruited to a 60-hour inpatient, General Clinical Research Center (GCRC) protocol designed to assess the metabolic responses to an inflammatory stimulus. Plasma resistin levels were determined in serial blood samples, collected at eight time points over 24 hours prior to the intravenous administration of human-research-grade endotoxin (3 ng/kg) as described in more detail in Reilly et al, 2004c, cited above.
Resistin concentrations, in cell media and human plasma, were assessed with a commercially available ELISA (Linco) and normalized to cell protein. Average correlation coefficient for standards using 4 parameter fit was 0.99. Intra-assay and inter-assay coefficients of variance were 4.7% and 9.1%, respectively. Direct comparison of standard curves generated by the Linco kit with another commercially available resistin ELISA (Biovendor) yielded high correlation (rho=0.99, p<0.001), except that the Biovendor results were approximately 30% lower than those determined with the Linco assay. This appeared to be related to the standards used for calibration. Discrepant absolute values among different assays, including the Biovendor assay, were recently described (Pfutzner 2003 cited above). Resistin levels in 40 plasma samples were measured using both Linco and Biovendor ELISA kits, with moderate correlation (rho=0.66). Levels of soluble TNFα Receptor-2 were measured using a commercially available immunoassay (R&D Systems). Intra-assay and inter assay coefficients of variance were 5.1% and 9.8%, respectively.
Healthy volunteers (n=6, 3 male, 3 female) aged 18-45 with BMI between 20 and 30 and on no medications were studied. The University of Pennsylvania Institutional Review Board approved the study protocol and all subjects gave written informed consent. Following screening and exclusion of subjects with any clinical or laboratory abnormalities, subjects were admitted to the General Clinical Research Center at the University of Pennsylvania for a 60 hour stay. Serial blood samples were collected for 24 hours prior to and 24 hours following the intravenous administration of human research grade endotoxin [obtained from NIH Clinical Center, reference endotoxin (CCRE) (lots 1 and 2; NIHCC PDS #67801)] at a dose of 3 ng/kg given at 6 AM. Plasma and whole blood RNA (PAX tube isolators, Qiagen) samples were isolated from blood, and stored under appropriate conditions for subsequent assays.

[5] = system: TNFα secretion by human macrophages; experiment: TNFα secretion into medium by primary human macrophages; type: cell-based; conditions: LPS 1 μg/ml, time course
Procedure: Peripheral blood mononuclear cells were isolated from whole blood of healthy donors following apheresis and elutriation. Greater than 90% of these monocytes expressed CD14 and HLA-DR. Cells were plated in 24 well plates at a density of 10^6 cells per well, allowed to adhere for 4 hours, then washed with Dulbecco's Modified Eagles Medium (DMEM) and further cultured in 10% FBS in DMEM supplemented with 5 ng/ml GM-CSF (Sigma) to promote macrophage differentiation. All experiments were performed after overnight equilibration with macrophage serum free medium (Gibco/Invitrogen) supplemented with 5 ng/ml GM-CSF. Cells were treated as indicated with LPS (Sigma), aspirin (Sigma), SN50 and control peptide (Biomol), MG132, PD98059, SB20358 (Calbiochem), and TNFα (R&D Systems). Neutralizing antibodies to TNFα, IL-6, and anti-IL-6α, as well as control IgG were obtained from R&D Systems. Adenovirus expressing activated IKK in pAD-easy™ vector with GFP and control vector were a generous gift from Steven Shoelson.

[6] = system: resistin protein secretion by human macrophages; experiment: Resistin protein secretion by primary human macrophages (ELISA); type: cell-based
Procedure: as §1
Resistin concentrations, in cell media and human plasma, were assessed with a commercially available ELISA (Linco) and normalized to cell protein.

[7] = LPS 24 h treatment, increasing concentration
[8] = human macrophages in cell culture

## C[S+]([O-])c1ccc(-c2nc(-c3ccc(F)cc3)c(-c3ccncc3)[nH]2)cc1 (stereo not drawn) [SB20358]
[1]; 2.5 μM
  effect on induction of resistin by LPS: partially blocked

## IL-6: cytokine interleukin-6
[1]; data not shown and Kaser et al, 2003
  effect on resistin: induces resistin modestly

## COc1cccc(-c2cc(=O)c3ccccc3o2)c1N [PD98059]
[1]; 50 μM
  effect on induction of resistin by LPS: partially blocked

## CC(=O)Oc1ccccc1C(=O)O [aspirin]
[1]; pre-treated with aspirin 2 h, then LPS (1 μg/ml) and aspirin 24 h, dose-dependent
  effect on endotoxin-induced resistin expression: dramatically decreased

## CC(C)C[C@@H](C=O)NC(=O)[C@H](CC(C)C)NC(=O)[C@H](CC(C)C)NC(=O)OCc1ccccc1 [MG132] (Cbz-Leu-Leu-Leu-aldehyde)
[1]; MG132 treatment of macrophages, data not shown
  effect on endotoxin-induced activation of resistin expression: abrogated

## lipopolysaccharide [LPS]
[2]
  maximal secreted protein level: sTNFR2: 39.3 ng/mL/mg
[3]
  mouse resistin expression after LPS: did not express detectable levels
[4]
  time at which TNFα gene expression was detectable after LPS: 2 h
  time of peak TNFα gene expression after LPS exposure: 6 h
[1]; LPS 1 μg/ml
  time of peak resistin gene expression after LPS: 24 h
[1]; [7]
  effect on resistin gene expression: dramatic, dose-responsive increase
[1]; [8]
  time of induction of resistin mRNA after LPS exposure: 6 to 24 h
Plasma resistin; LPS in humans (FIG. 6A)
  increase of resistin serum/plasma levels: over 400%
Plasma resistin; endotoxin induction, Examples 6-12
  putative maximum increase in resistin due to inflammation: 18 to 19 ng/mL
Plasma resistin; intravenous LPS 3 ng/kg, listed as endotoxemia
  increase of plasma resistin levels: > 7 fold
Plasma resistin; intravenous LPS 3 ng/kg, listed as endotoxin
  increase of plasma resistin levels: 3-5 fold
Plasma resistin; intravenous LPS 3 ng/kg, six normal volunteers
  time of peak resistin levels after LPS administration: 8 to 16 h
[5]
  maximal secreted protein level: TNFα: 207.2 ng/mL/mg
[6]; LPS 1 μg/ml, time course, normalized to cell protein
  maximal secreted protein level: resistin: 21.9 ng/mL/mg
[6]; [7]
  effect on resistin protein secretion into the medium: increase in resistin protein secretion
[6]; [8]
  time of induction of resistin protein after LPS exposure: 6 to 24 h

— patent publication US20110110924A1, “Resistin as a Marker and Therapeutic Target for Cardiovascular Disease” (priority 2004, published 2011)
